Laboratory results as given in patent publication US20100105610A1, “Methods of Inhibiting Tumor Cell Aggressiveness Using the Microenvironment of Human Embryonic Stem Cells” (CHILDREN'S MEMORIAL HOSPITAL, priority 2006, published 2010).

Assays:
Nodal = Nodal protein expression, Western blot; type: cell-based, human; settings: after administration of anti-Nodal Morpholino
Description: (§1) Protein lysates were prepared and quantified as previously described in Hess et al., 2001, Cancer Res. 61:3250-3255. Equal amounts of protein were separated by SDS-polyacrylamide gel electrophoresis under reducing conditions, and the resolved proteins were transferred onto Immobilon-P membranes (Millipore Corp., Bedford, Mass.). Membranes were blocked in 1% TBS, 0.1% Tween 20 (TBS-T) and 5% dry milk powder or 3% gelatin (for Nodal Westerns). Blots were incubated with anti-Nodal or anti-Lefty antibodies (Polyclonal rabbit anti-Nodal (H-110) 1:500 Santa Cruz Biotechnology, Santa Cruz, Calif.; Polyclonal goat anti-Lefty 1:500 R&D Systems, Minneapolis, Minn.), washed in TBS-T, and incubated with the appropriate horseradish peroxidase-labeled secondary antibody. Secondary antibodies were detected by enhanced chemiluminescence (Super Signal; Pierce, Rockford, Ill.) and exposure to autoradiography film (Molecular Technologies, St Louis, Mo.). Nodal protein was detected as two major bands at ˜48 and ˜35 kDa representing precursor and pro-Nodal respectively. Nodal often appeared as multiple bands, likely due to degradation of protein modifications. All experiments were done at least three times.
Conditioned matrices were prepared using hESCs, melanocytes, myoepithelial cells, amniotic fluid derived stem cells, or trophoblast cells on growth factor-reduced Matrigel (14 mg/mL; BD Biosciences) as previously described. Postovit et al., 2006, Stem Cells 24: 501-505. In all cases, cells were 80-100% confluent during the conditioning of the matrix. Alternatively, hESC-derived Lefty protein was seeded into Matrigel prior to polymerization. Human melanoma (C8161) or breast carcinoma (MDA-MB-231) cells, 2.5×10^5 cells/6-well dish, were subsequently exposed to this preconditioned matrix for 3 to 4 days.
as §1, with “primary antibody (Table 2),” for “anti-Nodal or anti-Lefty antibodies (Polyclonal rabbit anti-Nodal (H-110) 1:500 Santa Cruz Biotechnology, Santa Cruz, Calif.; Polyclonal goat anti-Lefty 1:500 R&D Systems, Minneapolis, Minn.),”, “TBS-T or TBS-T containing 0.5M NaCl for the Nodal Westerns,” for “TBS-T,”, “Nodal often appeared as multiple bands, likely due to degradation of protein modifications. All experiments were done at least three times.” left out

C8161 melanoma cells = assay: In vivo tumor cell proliferation-to-apoptosis ratio (Ki67 / TUNEL), C8161 tumors; settings: C8161 cells treated prior to injection into mouse
Source text: (A) In vivo tumor formation in a mouse injected with MDA-MB-231 cells pre-exposed for 3 days to either a control matrix (Matrigel) or a matrix conditioned by hESCs (H9 CMTX) (n=10) (B) C81-61 cells, transfected with either an empty vector or a Nodal expression construct (n=5), and (C) MDA-MB-231 cells treated with either MO^Control or MO^Nodal (n=10). […] (D) The ratio of tumor cell proliferation to apoptosis for C8161 and MDA-MB-231 derived tumors, determined by immunohistochemical staining for Ki67 and terminal deoxynucleotidyl transferase biotin-dUTP nick-end labeling (TUNEL). Prior to injection into a mouse, C8161 and MDA-MB-231 cells were cultured for 3 days on control or hESC conditioned (H9 CMTX) matrices, or treated with MO^Nodal to knock down Nodal expression. […] (E) Immunohistochemical analysis of Ki67 expression (red/brown) and TUNEL staining in orthotopic melanoma (C8161) and breast carcinoma (MDA-MB-231) tumors. […] Proliferation is indicated by Ki67 staining and apoptotic nuclei were detected with confocal microscopy as red staining localized to the nuclei of apoptotic C8161 or MDA-MB-231 cells. […]
In order to establish a mechanism by which exposure to the hESC microenvironment abrogates tumorigenicity, the effects of this treatment on the in vivo tumor cell proliferation-to-apoptosis ratio were analyzed. […]

[1] = test system: MDA-MB-231 breast carcinoma cells; assay: In vivo tumor formation, MDA-MB-231 cells injected into the mammary fat pad; design: species or system mouse; settings: 500,000 Morpholino-treated MDA-MB-231 cells injected, vs control
Source text: The effects of the hESC microenvironment on the in vivo tumorigenicity of melanoma and breast carcinoma cells were examined using orthotopic mouse models. […] In order to further substantiate the role of Nodal in tumorigenicity, and to illuminate a potential mechanism for the tumor-suppressive properties of the hESC microenvironment, previously shown to diminish Nodal expression (FIG. 9), orthotopic mouse models were utilized to examine the effects of: (a) Ectopic Nodal expression on the tumorigenic potential of C81-61 cells (isogenetically matched non-tumorigenic variants of the metastatic C8161 melanoma cell line); and (b) Nodal inhibition on MDA-MB-231 breast carcinoma tumorigenicity. The control C81-61 melanoma cell line was unable to form palpable tumors when 500,000 cells were injected, and using gross observation and histology 5.5 weeks after inoculation, these tumor cells could not be detected at the site of injection. In contrast, 100% of C81-61 cells transfected with a Nodal expression vector formed palpable tumors within 3.5 weeks of injection (FIG. 13B).
5 week old mice were injected subcutaneously with 250,000 C8161 or 500,000 C81-61 human cutaneous melanoma cells in 50 μL of complete RPMI; or 500,000 MDA-MB-231 cells in 50 μL of complete RPMI were injected into the mammary fat pad of 8 week old mice. When tumors became palpable measurements were taken twice per week.

“MO^Nodal: antisense Morpholino to Nodal, 5′-AAGCAGCACCTCCAGCCCTTATATC-3′ (SEQ ID NO: 20) (all phosphorodiamidate morpholino (PMO); further chemistry not fully specified)” was tested. Which Nodal expression (Nodal) did it give?
The Nodal expression was “down-regulation”.

And the “ratio of proliferation to apoptosis” value (C8161 melanoma cells)?
The value was “decreased”.

What about the tumorigenicity [1] of the same substance?
The tumorigenicity was “significant reduction”.
